# Data from paper PMC6271077, “Synthesis, Anticancer and Antibacterial Activity of Salinomycin N-Benzyl Amides” (Molecules, 2014).
# System: HL-60, HL-60/vinc, LoVo, LoVo/dx
# Test: Antiproliferative assays, all four cancer cell lines (range given)
# Format: cell-based
# Conditions: Homo sapiens, read-out: IC50 (range over the cancer cell lines)
# Description: Four human cancer cell lines and one normal cell line were used to evaluate anticancer activity of SAL and its N-benzyl amides: human acute promyelocytic leukemia (HL-60) and its vincristine resistant subline (HL-60/vinc), human colon adenocarcinoma cell lines sensitive (LoVo) and resistant to doxorubicin (LoVo/dx) as well as also normal murine embryonic fibroblast cell line (BALB/3T3). The BALB/3T3 cell line was purchased from the American Type Culture Collection (ATCC Rockville, MD, USA), HL-60 cell line from European Type Culture Collection by courtesy of Professor Spik and Dr Mazurier (Laboratory of Biological Chemistry USTL, Lille, France) and HL-60/vinc, LoVo and LoVo/dx by courtesy of Prof. E. Borowski (Technical University of Gdańsk, Gdańsk, Poland). All the cell lines are maintained in the Institute of Immunology and Experimental Therapy (IIET), Wrocław, Poland.
# Human leukemia cells were cultured in ISCOVE medium (IIET, Wroclaw, Polond) containing 10% fetal bovine serum and 2 mM L-glutamine (Sigma Aldrich) and 1 µg/100 mL […] for HL-60/vinc (Sigma Aldrich). Human colon adenocarcinoma cell lines were cultured in mixture of OptiMEM and RPMI 1640 (1:1) medium (IIET) supplemented with 5% fetal bovine serum (Thermo Fisher Scientific, Waltham, MA, USA), 2 mM L-glutamine, 1 mM sodium pyruvate (Sigma Aldrich) and 10 µg/100 mL doxorubicin for LoVo/dx (Sigma Aldrich). Murine embryonic fibroblast cells were cultured in Dulbecco medium (Gibco, Darmstadt, Germany) supplemented with 10% fetal bovine serum (Thermo Fisher Scientific) and 2 mM L-glutamine (Sigma Aldrich). All culture media contained antibiotics: 100 U/mL penicillin (Sigma Aldrich) and 100 µg/mL streptomycin (Polfa-Tarchomin, City, Poland). All cell lines were cultured during entire experiment in humid atmosphere at 37 °C and 5% CO2.
# Twenty four hours before adding the tested compounds all cell lines were seeded in 96-well plates (Sarstedt, Nümbrecht, Germany) in appropriate media with 10^4 cells per well. All cell lines were exposed to each tested agent at four different concentrations from the range 100 to 0.1 µg/mL for 72 h. The cells were also exposed to the reference drugs: cisplatin (Accord, London, UK) and doxorubicin hydrochloride (Fluka, St. Louis, MO, USA). Additionally, all cell lines were exposed to DMSO (the solvent used for tested compounds, Sigma Aldrich) at the concentrations corresponding to those in the tested agent dilutions. For adherent cells sulphorodamine B assay was performed and MTT assay for leukemia cells.
# After 72 h of incubation with tested compounds the cells were fixed in situ by gently adding of 50 µL per well of cold 50% trichloroacetic acid TCA (Avantor Performance Materials, City, Poland) and were incubated at 4 °C for 1 h. Then the wells were washed four times with water and air-dried. Next, 50 µL of 0.2% solution of sulphorodamine B (Sigma Aldrich) in 1% acetic acid (Avantor Performance Materials) were added to each well and plates were incubated at room temperature for 0.5 h. After incubation time, unbound dye was removed by washing plates four times with 1% acetic acid, whereas the stain bound to cells was solubilized with 150 µL of 10 mM Tris base (Sigma Aldrich). Absorbance of each solution was read at Synergy H4 photometer (BioTek Instruments, Winooski, VT, USA) at 540 nm wavelength.
# Proliferation inhibition of leukemia cells by tested compounds was measured by means of MTT assay. […]
smiles,measurement,value
"CC[C@@H](C(=O)[C@@H](C)[C@@H](O)[C@H](C)[C@@H]1O[C@@H]([C@@H](CC)C(=O)O)CC[C@@H]1C)[C@H]1O[C@]2(C=C[C@@H](O)[C@]3(CC[C@@](C)([C@H]4CC[C@](O)(CC)[C@H](C)O4)O3)O2)[C@H](C)C[C@@H]1C [SAL, Salinomycin]",IC50,330 to 2330 nM
